Results published in patent US20240309060A1, “POLYPEPTIDE BAX/NPM INHIBITORS” (TRUSTEES OF BOSTON UNIVERSITY, priority 2023, published 2024).
“Also recorded” adds a separate entry of the source. Square brackets hold non-standard residues; d marks the D form. βAla = NCCC(=O)O

Key:
human NPM1 = human NPM1 (Homo sapiens, UniProt P06748); assay: Surface plasmon resonance (SPR) binding of peptides to human NPM1; conditions: human NPM1, FIG. 14
Description: FIG. 14 depicts a table of the association rate, dissociation rate and the calculated equilibrium dissociation constant for 10 representative therapeutic peptides as measured by Surface Plasmon Resonance (SPR). Mean rates are derived from at least three different peptide concentrations at levels below saturation with human NPM1. Cell survival data are normalized to the negative control (a GFP fragment of similar size to the therapeutic peptides) and represent the mean of at least 3 separate experiments.
FIG. 15 depicts an on-off rate map. A graph of the off-rate (x-axis) and on-rate (y-axis) of 10 representative peptides from different sets of modified peptides. Diagonal dash-lines represent the equilibrium dissociation constant (KD) estimates the NPM1 binding affinity for each peptide based on the distance to the lines.
The 3D helical wheel projection scan predicted that 5 of 6 peptide residues (except for L185) with intermediate effects on post-ischemic cell survival cluster in a single surface domain (FIGS. 6 and 7). These surface residues are likely regulating the binding affinity Kd) between the therapeutic peptide and NPM1, the human target protein. Since binding affinity (Kd) between the peptide drug and NPMB1 partly predicts its efficacy, a high throughput, quantitative surface plasmon resonance (SPR) assay was developed.
SPR was measured for 10 novel polypeptides with select single or double mutations. Both the measured peptide “on” and “off” rates for binding human NPM1 markedly differed (FIG. 15). […] For most modified peptides, greater protection against ischemic stress positively correlated with a low Kd. […] Overall, SPR data combined with cell survival data adequately informs the selection of therapeutic peptides based on the quantifiable effects of R group modifications on these parameters. The combination of SPR binding affinity and cell survival data in vitro effectively rank orders therapeutic peptides for in vivo testing in animals.

[1] = tested on: primary murine proximal tubule epithelial cells (PTEC); assay: MTT cell survival assay of kidney cells after ischemic stress in vitro induced by metabolic inhibitors; format: cell-based; conditions: for Effect of the residue (single alanine substitution) on cytoprotection / cell survival after ischemic stress: alanine scanning of NPMB1, PTEC, FIG. 2; for Degree of cytoprotection during ischemic stress: alanine scan and pro-helical mutations; for Protection of primary kidney proximal tubule cells from ischemic stress (relative kidney cell survival rate): 70 min ischemic stress, metabolic inhibitors, vs non-specific GFP fragment, normalized to baseline, FIG. 4; for Viability of primary murine kidney cells after ischemic stress: ischemic stress induced by metabolic inhibitors, FIGS. 5, 7
Procedure: FIG. 2 depicts an NPMB1 Alanine Scan. Relative kidney cell survival rate after 70 min ischemic stress in vitro induced by metabolic inhibitors in the presence of NPMB1 (control) vs. 19 different NPMBx polypeptides with single alanine substitutions (2 additional NPMB1 alanine residues were not substituted). Residue numbers (x axis) reflect Bax sequence that binds human NPM1; Survival data are normalized to NPMB1; post-ischemic kidney cell survival is shown in tertiles: (left-most group: 5-40% survival; middle-group: 55-70% and third group: 80-95%); n=3 separate experiments.
Relative kidney cell survival rate after 70 min ischemic stress in vitro induced by transient exposure to metabolic inhibitors in the presence of NPMB polypeptides (Agents 2, 5, 7, 14 that reflect alanine scan polypeptides A173, A187, A179, A176) vs. a non—specific polypeptide (GFP fragment). Survival data normalized to baseline (no stress); *P<0.01vs. baseline; t P<0.05 vs. stress; data represent 3 separate experiments; error bars represent mean+SD.
FIGS. 13A-13B depict the cytoprotective effects of select therapeutic peptides during ischemic stress in vitro. Primary murine proximal tubule epithelial cells (PTEC) were transiently exposed to metabolic inhibitors for 60 min and allowed to recover for 6 hr. to simulate ischemia in vivo; MTT assay estimated cell survival. “Control” (open bars); is a GFP fragment of similar size to the therapeutic peptides was used a negative control; NPMB1 (prototype) serves as a positive control. […] All peptides contained the nuclear localizing sequence (NLS) to enhance peptide delivery to the kidney, a beta linker and both carboxy-and amino terminal modifications to reduce susceptibility to protease digestion; data are mean+standard error; n=3 separate experiments. Figure discloses SEQ ID NOS 139, 134-135, 128, 127, and 138, respectively, in order of appearance.
Structure activity relationships of NPMB1 derivatives were determined through alanine scanning In these studies, 19 polypeptides were produced using methods shown in FIGS. 8-11 and their effect of kidney cell survival after ischemic stress was characterized using the MTT cell survival assay. Based on determination of relative kidney cell survival rate, polypeptides were grouped according to activity as shown in FIG. 2 (orange: 5-40% survival; blue 55-70% survival, or green 80-95% survival).

human NPM1, sequence (P06748 whole entry, the tested form may be a part): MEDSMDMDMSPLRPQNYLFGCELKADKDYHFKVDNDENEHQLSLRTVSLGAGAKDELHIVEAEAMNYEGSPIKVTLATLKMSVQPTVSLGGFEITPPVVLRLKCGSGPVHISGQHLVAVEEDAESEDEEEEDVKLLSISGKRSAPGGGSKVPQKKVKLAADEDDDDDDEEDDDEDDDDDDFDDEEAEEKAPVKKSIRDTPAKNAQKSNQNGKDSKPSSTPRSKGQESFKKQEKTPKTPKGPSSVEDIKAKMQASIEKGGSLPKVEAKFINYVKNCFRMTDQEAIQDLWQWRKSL

Substance | Effect of the residue (single alanine substitution) on cytoprotection / cell survival after ischemic stress [1] | other results
Ac-PKKKRKV-Bala-TVTLFVAGVLTASLTAWKKMG-OMe [NPMB1-X-002] | – | Kd / NPM1 binding affinity in words (human NPM1): relatively low Kd values
Ac-PKKKRKV-Bala-TVTAFVAGVLTASLTIWKKMG-OMe [NPMB1-III-004] | moderate cytoprotective effects | –
Ac-PKKKRKV-Bala-QVTIAVAGVLTASLTIWKKMG-OMe [NPMB1-X-009] | – | Cytoprotective effects during ischemic stress in vitro ([1]; peptides 100 nM, metabolic inhibitors 60 min, recovery 6 hr, vs GFP negative control, FIG. 13): most robust protection
Ac-PKKKRKV-Bala-TVTIFVAGALTASLTIWKKMG-OMe [NPMB1-III-008] | moderate cytoprotective effects | –
Ac-PKKKRKV-Bala-TVTIFVAGVLTASLTIWKAMG-OMe [NPMB1-III-017] | critical for cytoprotection | –
Ac-PKKKRKV-Bala-QVTIFVAGVLTASLTIWKKMG-OMe [NPMB1-V-004] | – | Degree of cytoprotection during ischemic stress [1]: highly effective
Ac-PKKKRKV-Bala-TATIFVAGVLTASLTIWKKMG-OMe [NPMB1-III-002] | minimal effect on cell survival | Protection of primary kidney proximal tubule cells from ischemic stress (relative kidney cell survival rate) [1]: protect; Degree of cytoprotection during ischemic stress [1]: substantial protection; Viability of primary murine kidney cells after ischemic stress ([1]; listed as Agent 2): substantially improve the viability; also recorded: protect against ischemic injury
Ac-PKKKRKV-Bala-TVTIFVAGVLAASLTIWKKMG-OMe [NPMB1-III-010] | critical for cytoprotection | –
Ac-PKKKRKV-Bala-TVTIFVAGVLTASLTAWKKMG-OMe [NPMB1-III-014] | minimal effect on cell survival | Protection of primary kidney proximal tubule cells from ischemic stress (relative kidney cell survival rate) [1]: protect; Degree of cytoprotection during ischemic stress [1]: substantial protection
Ac-PKKKRKV-Bala-TVTIFVAGVATASLTIWKKMG-OMe [NPMB1-III-009] | critical for cytoprotection | –
Ac-PKKKRKV-Bala-TVTIFVAGVLTASLTIWAKMG-OMe [NPMB1-III-016] | critical for cytoprotection | –
Ac-PKKKRKV-Bala-TVTIFAAGVLTASLTIWKKMG-OMe [NPMB1-III-006] | critical for cytoprotection | –
Ac-PKKKRKV-Bala-TVTIFVAAVLTASLTIWKKMG-OMe [NPMB1-III-007] | minimal effect on cell survival | Protection of primary kidney proximal tubule cells from ischemic stress (relative kidney cell survival rate) [1]: protect; Degree of cytoprotection during ischemic stress [1]: substantial protection; Viability of primary murine kidney cells after ischemic stress ([1]; listed as Agent 7): substantially improve the viability; also recorded: protect against ischemic injury
Ac-PKKKRKV-Bala-TVTIFVAGVLTASLTIWKKAG-OMe [NPMB1-III-018] | moderate cytoprotective effects | –
Ac-PKKKRKV-Bala-TVTIAVAGVLTASLTIWKKMG-OMe [NPMB1-III-005] | minimal effect on cell survival | Protection of primary kidney proximal tubule cells from ischemic stress (relative kidney cell survival rate) [1]: protect; Degree of cytoprotection during ischemic stress [1]: substantial protection; Viability of primary murine kidney cells after ischemic stress ([1]; listed as Agent 5): substantially improve the viability; also recorded: protect against ischemic injury
Ac-KKRRRKKRRRKKRRRK-Bala-TVTIFVAGVLTASLTIWKKMG-OH (Ac-KKRRRKKRRRKKRRRK[βAla]TVTIFVAGVLTASLTIWKKMG-OH; SMILES CC[C@H](C)[C@H](NC(=O)[C@@H](NC(=O)[C@H](CC(C)C)NC(=O)[C@H](CO)NC(=O)[C@H](C)NC(=O)[C@@H](NC(=O)[C@H](CC(C)C)NC(=O)[C@@H](NC(=O)CNC(=O)[C@H](C)NC(=O)[C@@H](NC(=O)[C@H](Cc1ccccc1)NC(=O)[C@@H](NC(=O)[C@@H](NC(=O)[C@@H](NC(=O)[C@@H](NC(=O)CCNC(=O)[C@H](CCCCN)NC(=O)[C@H](CCCNC(=N)N)NC(=O)[C@H](CCCNC(=N)N)NC(=O)[C@H](CCCNC(=N)N)NC(=O)[C@H](CCCCN)NC(=O)[C@H](CCCCN)NC(=O)[C@H](CCCNC(=N)N)NC(=O)[C@H](CCCNC(=N)N)NC(=O)[C@H](CCCNC(=N)N)NC(=O)[C@H](CCCCN)NC(=O)[C@H](CCCCN)NC(=O)[C@H](CCCNC(=N)N)NC(=O)[C@H](CCCNC(=N)N)NC(=O)[C@H](CCCNC(=N)N)NC(=O)[C@H](CCCCN)NC(=O)[C@H](CCCCN)NC(C)=O)[C@@H](C)O)C(C)C)[C@@H](C)O)[C@@H](C)CC)C(C)C)C(C)C)[C@@H](C)O)[C@@H](C)O)C(=O)N[C@@H](Cc1c[nH]c2ccccc12)C(=O)N[C@@H](CCCCN)C(=O)N[C@@H](CCCCN)C(=O)N[C@@H](CCSC)C(=O)NCC(=O)O) [NPMB1-I-010] | – | Kd / NPM1 binding affinity in words (human NPM1): relatively low Kd
Ac-PKKKRKV-Bala-AVTIFVAGVLTASLTIWKKMG-OMe [NPMB1-III-001] | moderate cytoprotective effects | –
Ac-PKKKRKV-Bala-TVTIFVAGVLTASLTIAKKMG-OMe [NPMB1-III-015] | critical for cytoprotection | –
Ac-PKKKRKV-Bala-TVAIFVAGVLTASLTIWKKMG-OMe [NPMB1-III-003] | critical for cytoprotection | –
Ac-PKKKRKV-Bala-TVTIFVAGVLTASLQIWKKMG-OMe [NPMB1-V-003] | – | Kd / NPM1 binding affinity in words (human NPM1): low Kd values (except NPMB1-V-003
Ac-PKKKRKV-Bala-TVTIFVAGVLTASATIWKKMG-OMe [NPMB1-III-012] | moderate cytoprotective effects | Viability of primary murine kidney cells after ischemic stress ([1]; listed as Agent 12): substantially improve the viability; also recorded: protect against ischemic injury
Ac-PKKKRKV-Bala-TVTIFVAGVLTASLTIWKKMA-OMe [NPMB1-III-019] | critical for cytoprotection | –
Ac-PKKKRKV-Bala-TVTIFVAGVLTAALTIWKKMG-OMe [NPMB1-III-011] | critical for cytoprotection | –
Ac-PKKKRKV-Bala-TVTIFVAGVLTASLAIWKKMG-OMe [NPMB1-III-013] | moderate cytoprotective effects | –
